{"source": "ChEMBL document CHEMBL6120962", "about": "“New Mitochondria-Targeted Fisetin Derivative Compromises Mitophagy and Limits Survival of Drug-Induced Senescent Breast Cancer Cells” (J Med Chem, 2024)", "key": {"[1]": {"test_system": "HCC1500", "test": "Anticancer activity against ER-positive human HCC1500 cells assessed as effect on metabolic activity upto 10 uM incubated for 24 hrs by MTT assay", "assay_type": "functional, cell-based"}, "[2]": {"test_system": "CAMA-1", "test": "Anticancer activity against ER-positive human CAMA-1 cells assessed as effect on metabolic activity upto 10 uM incubated for 24 hrs by MTT assay", "assay_type": "functional, cell-based"}, "[3]": {"test_system": "HCC1428", "test": "Anticancer activity against ER-positive human HCC1428 cells assessed as effect on metabolic activity upto 10 uM incubated for 24 hrs by MTT assay", "assay_type": "functional, cell-based"}, "[4]": {"test_system": "Mitochondrial membrane", "test": "Induction of mitochondrial membrane potential depolarization in human CAMA-1 cells at 1 uM incubated for 24 hrs by 7-AAD staining based flow cytometric analysis", "assay_type": "cell membranes"}, "[5]": {"test_system": "Mitochondrial membrane", "test": "Induction of mitochondrial membrane potential depolarization in human MCF-10F cells at 5 uM incubated for 24 hrs by 7-AAD staining based flow cytometric analysis", "assay_type": "cell membranes"}, "[6]": {"test_system": "Mitochondrial membrane", "test": "Induction of mitochondrial membrane potential depolarization in human HCC1428 cells assessed as increase in fraction of depolarized dead cells at 5 uM incubated for 24 hrs by 7-AAD staining based flow cytometric analysis", "assay_type": "cell membranes"}, "[7]": {"test_system": "Mitochondrial membrane", "test": "Induction of mitochondrial membrane potential depolarization in tamoxifen-induced senescent human CAMA-1 cells assessed as increase in depolarized dead cell level at 1 to 5 uM incubated for 24 hrs by 7-AAD staining based flow cytometric analysis", "assay_type": "cell membranes", "details": "dose 1-5 µM"}, "[8]": {"test_system": "Mitochondrial membrane", "test": "Induction of mitochondrial membrane potential depolarization in tamoxifen-induced senescent human ZR-75-30 cells assessed as increase in depolarized dead cell level at 1 to 5 uM incubated for 24 hrs by 7-AAD staining based flow cytometric analysis", "assay_type": "cell membranes", "details": "dose 1-5 µM"}, "[9]": {"test_system": "HCC1428", "test": "Induction of mitochondrial dysfunction in tamoxifen-induced senescent human HCC1428 cells assessed as decrease in maximal respiration at 5 uM incubated for 6 hrs by real-time analysis", "assay_type": "functional, cell-based"}, "[10]": {"test_system": "HCC1428", "test": "Induction of mitochondrial dysfunction in tamoxifen-induced senescent human HCC1428 cells assessed as decrease in spare respiratory capacity at 5 uM incubated for 6 hrs by real-time analysis", "assay_type": "functional, cell-based"}, "[11]": {"test_system": "HCC1428", "test": "Induction of mitochondrial dysfunction in human HCC1428 cells assessed as decrease in maximal respiration at 5 uM incubated for 6 hrs by real time analysis", "assay_type": "functional, cell-based"}, "[12]": {"test_system": "HCC1428", "test": "Induction of mitochondrial dysfunction in human HCC1428 cells assessed as decrease in spare respiratory capacity at 5 uM incubated for 6 hrs by real time analysis", "assay_type": "functional, cell-based"}, "[13]": {"test_system": "MCF-10F", "test": "Induction of mitochondrial dysfunction in human MCF-10F cells assessed as decrease in coupling efficiency at 5 uM incubated for 6 hrs by real time analysis", "assay_type": "functional, cell-based"}, "[14]": {"test_system": "HCC1428", "test": "Induction of ubiquitin-dependent mitophagy in tamoxifen-induced senescent human HCC1428 cells assessed as increase in PINK1 level at 5 uM by immunostaining based imaging cytometric analysis", "assay_type": "functional, cell-based"}, "[15]": {"test_system": "HCC1428", "test": "Induction of autophagy in tamoxifen-induced senescent human HCC1428 cells assessed as increase in ULK1 level at 1 to 5 uM by immunostaining based imaging cytometric analysis", "assay_type": "functional, cell-based", "details": "dose 1-5 µM"}, "[16]": {"test_system": "CAMA-1", "test": "Induction of oxidative stress in tamoxifen-induced senescent human CAMA-1 cells assessed as increase in mitochondrial superoxide production at 1 to 5 uM incubated for 24 hrs by MitoSOX red superoxide indicator based fluorescence analysis", "assay_type": "functional, cell-based", "details": "dose 1-5 µM"}, "[17]": {"test_system": "CAMA-1", "test": "Induction of apoptosis in human CAMA-1 cells assessed as phosphatidylserine externalization at 1 to 5 uM incubated for 24 hrs by Annexin V-FITC staining based flow cytometric analysis", "assay_type": "functional, cell-based", "details": "dose 1-5 µM"}, "[18]": {"test_system": "MCF-10F", "test": "Induction of apoptosis in tamoxifen-induced senescent human MCF-10F cells assessed as assessed as phosphatidylserine externalization at 1 to 5 uM incubated for 24 hrs by Annexin V-FITC staining based flow cytometric analysis", "assay_type": "functional, cell-based", "details": "dose 1-5 µM"}, "[19]": {"test_system": "ZR-75-30", "test": "Induction of […] in human tamoxifen-induced senescent human ZR-75-30 cells at 1 to 5 uM by incubated for 24 hrs Annexin V-FITC staining based flow cytometric analysis", "assay_type": "functional, cell-based", "details": "dose 1-5 µM"}, "[20]": {"target": "T1, Mixed lineage kinase domain-like protein (Homo sapiens) (UniProt Q8NB16)", "T1 sequence (whole entry)": "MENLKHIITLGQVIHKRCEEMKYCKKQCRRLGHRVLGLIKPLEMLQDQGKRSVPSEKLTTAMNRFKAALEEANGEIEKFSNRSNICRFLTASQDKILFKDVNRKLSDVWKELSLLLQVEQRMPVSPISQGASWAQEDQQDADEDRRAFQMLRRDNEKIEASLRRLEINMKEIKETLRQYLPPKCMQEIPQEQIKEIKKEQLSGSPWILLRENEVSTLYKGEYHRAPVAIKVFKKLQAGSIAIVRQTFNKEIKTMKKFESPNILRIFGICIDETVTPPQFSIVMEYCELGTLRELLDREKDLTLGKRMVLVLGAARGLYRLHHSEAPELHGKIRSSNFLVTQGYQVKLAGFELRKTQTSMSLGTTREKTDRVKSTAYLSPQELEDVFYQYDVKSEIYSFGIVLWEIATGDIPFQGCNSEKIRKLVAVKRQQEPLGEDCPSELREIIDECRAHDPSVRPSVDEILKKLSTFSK", "test": "Induction of MLKL phosphorylation in human HCC1428 cells at 1 to 5 uM incubated for 24 hrs by Western blot analysis", "assay_type": "cell-based", "details": "dose 1-5 µM"}, "[21]": {"test_system": "HCC1428", "test": "Induction of apoptosis in tamoxifen-induced senescent human HCC1428 cells assessed as increase in caspase 9 level incubated for 24 hrs by immunostaining based imaging cytometric analysis", "assay_type": "functional, cell-based"}, "[22]": {"test_system": "ZR-75-30", "test": "Induction of apoptosis in tamoxifen-induced senescent human ZR-75-30 cells assessed as increase in caspase 9 level incubated for 24 hrs by immunostaining based imaging cytometric analysis", "assay_type": "functional, cell-based"}, "[23]": {"test_system": "ZR-75-30", "test": "Induction of apoptosis in tamoxifen-induced senescent human ZR-75-30 cells assessed as increase in caspase 3 level incubated for 24 hrs by immunostaining based imaging cytometric analysis", "assay_type": "functional, cell-based"}, "[24]": {"test_system": "HCC1428", "test": "Induction of apoptosis in tamoxifen-induced senescent human HCC1428 cells assessed as decrease in Bcl2 level at 5 uM incubated for 24 hrs by Western blot analysis", "assay_type": "functional, cell-based"}, "[25]": {"test_system": "MCF-10F", "test": "Induction of apoptosis in human MCF-10F cells assessed as decrease in Bcl2 level at 1 to 5 uM incubated for 24 hrs by Western blot analysis", "assay_type": "functional, cell-based", "details": "dose 1-5 µM"}, "[26]": {"test_system": "ZR-75-30", "test": "Induction of apoptosis in tamoxifen-induced senescent human ZR-75-30 cells assessed as decrease in HSP90 level incubated for 24 hrs by immunostaining based imaging cytometric analysis", "assay_type": "functional, cell-based"}, "[27]": {"test_system": "CAMA-1", "test": "Induction of apoptosis in tamoxifen-induced senescent human CAMA-1 cells assessed as decrease in HSP90 level incubated for 24 hrs by immunostaining based imaging cytometric analysis", "assay_type": "functional, cell-based"}, "[28]": {"test_system": "HCC1428", "test": "Induction of apoptosis in tamoxifen-induced senescent human HCC1428 cells assessed as decrease in AKT level at 1 to 5 uM incubated for 24 hrs by Western blotting analysis", "assay_type": "functional, cell-based", "details": "dose 1-5 µM"}, "[29]": {"test_system": "ZR-75-30", "test": "Induction of senescence in human ZR-75-30 cells assessed as […] in beta-galactosidase activity at 5 uM incubated for 24 hrs by immunostaining based imaging cytometric analysis", "assay_type": "functional, cell-based"}, "[30]": {"test_system": "MCF7", "test": "Antitumor activity against ER-positive human MCF7 cells xenografted in Danio rerio embryo assessed as decrease in tumor size at 1 to 5 uM administered for 48 hrs by imaging analysis", "assay_type": "functional, cell-based", "details": "dose 1-5 µM"}, "[31]": {"test_system": "T47D", "test": "Antitumor activity against ER-positive human T47D cells xenografted in Danio rerio embryo assessed as decrease in tumor size at 1 to 5 uM administered for 48 hrs by imaging analysis", "assay_type": "functional, cell-based", "details": "dose 1-5 µM"}}, "note": "Calls of active or inactive are those of the source. The rule behind the calls is not given here."}
{"molecule": "CC(=O)Oc1ccc2c(=O)c(OCCCC[P+](c3ccccc3)(c3ccccc3)c3ccccc3)c(-c3ccc4c(c3)OC(c3ccccc3)(c3ccccc3)O4)oc2c1.[I-]", "values": [{"measurement": "Activity", "setting": "[1]", "result": "Active"}, {"measurement": "Activity", "setting": "[2]", "result": "Active"}, {"measurement": "Activity", "setting": "[3]", "result": "Active"}, {"measurement": "Activity", "setting": "[4]", "result": "Active"}, {"measurement": "Activity", "setting": "[5]", "result": "inactive"}, {"measurement": "Activity", "setting": "[6]", "result": "Active"}, {"measurement": "Activity", "setting": "[7]", "result": "Active"}, {"measurement": "Activity", "setting": "[8]", "result": "Active"}, {"measurement": "Activity", "setting": "[9]", "result": "Active"}, {"measurement": "Activity", "setting": "[10]", "result": "Active"}, {"measurement": "Activity", "setting": "[11]", "result": "Active"}, {"measurement": "Activity", "setting": "[12]", "result": "Active"}, {"measurement": "Activity", "setting": "[13]", "result": "inactive"}, {"measurement": "Activity", "setting": "[14]", "result": "Active"}, {"measurement": "Activity", "setting": "[15]", "result": "Active"}, {"measurement": "Activity", "setting": "[16]", "result": "Active"}, {"measurement": "Activity", "setting": "[17]", "result": "Active"}, {"measurement": "Activity", "setting": "[18]", "result": "Active; Slight Effect Observed"}, {"measurement": "Activity", "setting": "[19]", "result": "Active"}, {"measurement": "Activity", "setting": "[20]", "result": "inactive"}, {"measurement": "Activity", "setting": "[21]", "result": "Active"}, {"measurement": "Activity", "setting": "[22]", "result": "Active"}, {"measurement": "Activity", "setting": "[23]", "result": "Active"}, {"measurement": "Activity", "setting": "[24]", "result": "Active"}, {"measurement": "Activity", "setting": "[25]", "result": "inactive"}, {"measurement": "Activity", "setting": "[26]", "result": "Active"}, {"measurement": "Activity", "setting": "[27]", "result": "Active"}, {"measurement": "Activity", "setting": "[28]", "result": "Active"}, {"measurement": "Activity", "setting": "[29]", "result": "Active"}, {"measurement": "Activity", "setting": "[30]", "result": "Active"}, {"measurement": "Activity", "setting": "[31]", "result": "Active"}]}
